Measurements reported in patent publication EP2812315B1, “PYRROLIC DERIVATIVES, PROCESSES FOR PREPARING THE SAME AND THEIR USES AS A DRUG” (Universite Joseph Fourier, priority 2012, dated 2013).
Values after ≈ are worked out from the molar mass of the structure shown. Like-named read-outs stand apart in the source and are kept apart here.

Experiments:
Format in all cases: cell-based
[1] = tested on: Streptococcus mitis CIP 103335; test: MIC determination, microdilution method (CLSI M07-A8); conditions: CIP103335, 18 hours incubation
Protocol: (§1) The microdilution method recommended by the Clinical and Laboratory Standard Institute [M07-A8, Vol.29, N°2] was used. The activity of pyrrolic compounds was tested against 29 bacterial strains belonging to 17 different species and 12 different genera (Staphylococcus, Streptococcus, Enterococcus, […], Bacillus, Haetttophilus, Escherichia, Klebsiella, Enterobacter, Serratia, Pseudomonas, and Acinetobacter). Bacterial inocula were prepared in Mueller Hinton broth (MH2, bioMérieux, Marcy L'Etoile, France), supplemented with 10% sheep blood for fastidious species (i.e., Streptococcus pneumoniae and Haemophilus influenzae). They were dispensed in 96 well microtiter plates (5 x 10^5 CFU/mL of final inoculum). Pyrrolic compounds were added to the wells as to obtain two-fold serial concentrations (0.25-64 mg/L). Plates were incubated at 37°C, in 5% CO2 enriched atmosphere for fastidious species only. MICs were read after 18 hours incubation of cultures, and corresponded to the minimum pyrrolic compound concentration that allowed complete visual growth inhibition of bacteria. Drug-free cultures served as growth controls. Cultures receiving gentamicine, ciprofloxacine or cefotaxime served as positive controls.

[2] = tested on: Acinetobacter baumanii ATCC 19606; test: as above; conditions: Acinetobacter baumannii
Protocol: as §1

[3] = tested on: Enterococcus faecium CIP 54.32; test: as above; conditions: CIP54, 18 hours incubation
Protocol: as §1

[4] = tested on: Streptococcus agalactiae (group B) ATCC 12400; test: as above; conditions: ATCC12400, 18 hours incubation
Protocol: as §1

[5] = tested on: Staphylococcus epidermidis ATCC 12228; test: as above
Protocol: as §1

[6] = tested on: Staphylococcus aureus ATCC 9144; test: as above; conditions: ATCC9144, 5 x 10^5 CFU/mL, 18 hours incubation
Protocol: as §1

[7] = tested on: Staphylococcus epidermidis CIP 81.55; test: as above; conditions: CIP81, 5 x 10^5 CFU/mL, 18 hours incubation
Protocol: as §1

[8] = tested on: Enterococcus faecalis ATCC 29212; test: as above; conditions: ATCC29212, 18 hours incubation
Protocol: as §1

[9] = tested on: Staphylococcus aureus SA-1199B; test: as above; conditions: SA1199B, 18 h
Protocol: as §1

[10] = tested on: Staphylococcus aureus ATCC 106414 (VISA); test: as above; conditions: 5 x 10^5 CFU/mL, 18 hours incubation
Protocol: as §1

[11] = tested on: Staphylococcus aureus ATCC 6538; test: as above; conditions: ATCC6538, 5 x 10^5 CFU/mL, 18 hours incubation
Protocol: as §1

[12] = tested on: Staphylococcus aureus ATCC 29213; test: as above
Protocol: as §1

[13] = tested on: Enterobacter cloacae ATCC13047; test: as above
Protocol: as §1

[14] = tested on: Listeria innocua CIP 80.11; test: as above; conditions: CIP80, 18 hours incubation
Protocol: as §1

[15] = tested on: Pseudomonas aeruginosa CIP 5933; test: as above
Protocol: as §1

[16] = tested on: Bacillus subtilis CIP 5262; test: as above; conditions: CIP5262, 18 hours incubation
Protocol: as §1

[17] = tested on: Streptococcus pneumoniae ATCC 6303; test: as above; conditions: ATCC6303, 10% sheep blood, 5% CO2, 18 hours incubation
Protocol: as §1

[18] = tested on: Staphylococcus aureus ATCC 33592 (MRSA); test: as above; conditions: 5 x 10^5 CFU/mL, 18 hours incubation
Protocol: as §1

[19] = tested on: Streptococcus pneumoniae ATCC 49619; test: as above; conditions: ATCC49619, 10% sheep blood, 5% CO2, 18 hours incubation
Protocol: as §1

[20] = tested on: Staphylococcus aureus ATCC 25923; test: as above
Protocol: as §1

[21] = tested on: Klebsiella pneumoniae ATCC 35657; test: as above
Protocol: as §1

[22] = tested on: Staphylococcus epidermidis CIP 103627; test: as above; conditions: CIP103627, 5 x 10^5 CFU/mL, 18 hours incubation
Protocol: as §1

[23] = tested on: Haemophilus influenzae ATCC 49766; test: as above; conditions: ATCC49766, 10% sheep blood, 5% CO2, 18 hours incubation
Protocol: as §1

[24] = tested on: Staphylococcus aureus CIP 103428; test: as above; conditions: CIP103428, 5 x 10^5 CFU/mL, 18 hours incubation
Protocol: as §1

[25] = tested on: Escherichia coli ATCC 25922; test: as above
Protocol: as §1

[26] = tested on: Staphylococcus aureus CIP 65.6; test: as above; conditions: CIP65, 5 x 10^5 CFU/mL, 18 hours incubation
Protocol: as §1

[27] = tested on: Streptococcus pyogenes (group A) CIP 104226; test: as above; conditions: CIP104226, 18 hours incubation
Protocol: as §1

[28] = tested on: Serratia marcescens CIP 103551; test: as above
Protocol: as §1

[29] = tested on: Staphylococcus aureus CIP 65.25 (MRSA); test: as above; conditions: 5 x 10^5 CFU/mL, 18 hours incubation
Protocol: as §1

[30] = tested on: KB (human mouth carcinoma); test: In vitro cytotoxicity; conditions: 10^-5 M in DMSO, triplicate, read-out: % of cellular growth inhibition
Protocol: (§2) In vitro cytotoxicity was assayed on three cell lines - KB (human mouth carcinoma), MCR5 (human lung fibroblast) and HCT116 (human colon tumor). Results are presented in table III as % of cellular growth inhibition in presence of 10^-5 M and 10^-6 M of the tested bis-pyrrolic derivatives in DMSO (triplicate).

[31] = tested on: HCT116 (human colon tumor); test: In vitro cytotoxicity; conditions: HCT-116, 10^-5 M in DMSO, triplicate, read-out: % of cellular growth inhibition
Protocol: as §2

MRC5 = test: In vitro cytotoxicity; conditions: MRC5 (human lung fibroblast); 10^-5 M in DMSO; triplicate; read-out: % of cellular growth inhibition
Protocol: as §2

[32] = ATCC19606, Acinetobacter baumanii ATCC 19606, 18 hours incubation, read-out: MIC
[33] = ATCC12228, Staphylococcus epidermidis ATCC 12228, 5 x 10^5 CFU/mL, 18 hours incubation, read-out: MIC
[34] = ATCC29213, Staphylococcus aureus ATCC 29213, 5 x 10^5 CFU/mL, 18 hours incubation, read-out: MIC
[35] = Enterobacter cloacae ATCC13047, 18 hours incubation, read-out: MIC
[36] = CIP5933, Pseudomonas aeruginosa CIP 5933, 18 hours incubation, read-out: MIC
[37] = ATCC25923, Staphylococcus aureus ATCC 25923, 5 x 10^5 CFU/mL, 18 hours incubation, read-out: MIC
[38] = ATCC35657, Klebsiella pneumoniae ATCC 35657, 18 hours incubation, read-out: MIC
[39] = ATCC25922, Escherichia coli ATCC 25922, 18 hours incubation, read-out: MIC
[40] = CIP103551, Serratia marcescens CIP 103551, 18 hours incubation, read-out: MIC

Structure (SMILES)	MIC [2, 32] [µg/mL]	MIC [5, 33] [µg/mL]	MIC [6] [µg/mL]	MIC [7] [µg/mL]	MIC [10] [µg/mL]	MIC [11] [µg/mL]	MIC [12, 34] [µg/mL]	MIC [13, 35] [µg/mL]	MIC [15, 36] [µg/mL]	MIC [18] [µg/mL]	MIC [20, 37] [µg/mL]	MIC [21, 38] [µg/mL]	MIC [22] [µg/mL]	MIC [24] [µg/mL]	MIC [25, 39] [µg/mL]	MIC [26] [µg/mL]	MIC [28, 40] [µg/mL]	inhibition at 10 µM [30] [%]	inhibition at 10 µM [31] [%]	inhibition at 10 µM (MRC5) [%]	further results
CCC(c1[nH]c(C)c(C(C)=O)c1C)c1[nH]c(C)c(C(C)=O)c1C [3a]	> 128	> 128	> 128	> 128	32 (≈ 102 µM)	16 (≈ 50.9 µM)	32 (≈ 102 µM)	> 128	> 128	16 (≈ 50.9 µM)	32 (≈ 102 µM)	> 128	> 128	32 (≈ 102 µM)	> 128	32 (≈ 102 µM)	> 128	30	41		MIC [1]: > 128 µg/mL; MIC [3]: > 128 µg/mL; MIC [4]: > 128 µg/mL; MIC [8]: > 128 µg/mL; MIC [9]: 32 µg/mL (≈ 102 µM); MIC [14]: > 128 µg/mL; MIC [16]: > 128 µg/mL; MIC [17]: > 128 µg/mL; MIC [19]: > 128 µg/mL; MIC [23]: > 128 µg/mL; MIC [27]: > 128 µg/mL; MIC [29]: 16 µg/mL (≈ 50.9 µM)
CC(=O)c1c(C)[nH]c(C(c2ccccc2)c2[nH]c(C)c(C(C)=O)c2C)c1C [3b]	> 128	> 128	8 (≈ 22.1 µM)	> 128	4 (≈ 11 µM)	4 (≈ 11 µM)	4 (≈ 11 µM)	> 128	> 128	8 (≈ 22.1 µM)	4 (≈ 11 µM)	> 128	> 128	4 (≈ 11 µM)	> 128	4 (≈ 11 µM)	> 128	32	43		MIC [1]: > 128 µg/mL; MIC [3]: > 128 µg/mL; MIC [4]: > 128 µg/mL; MIC [8]: > 128 µg/mL; MIC [9]: 8 µg/mL (≈ 22.1 µM); MIC [14]: > 128 µg/mL; MIC [16]: > 128 µg/mL; MIC [17]: > 128 µg/mL; MIC [19]: > 128 µg/mL; MIC [23]: > 128 µg/mL; MIC [27]: > 128 µg/mL; MIC [29]: 8 µg/mL (≈ 22.1 µM)
CC(=O)c1c(C)[nH]c(C(c2ccc([N+](=O)[O-])cc2)c2[nH]c(C)c(C(C)=O)c2C)c1C [3d]	> 128	> 128	> 32	> 128	8 (≈ 19.6 µM)	> 32	8 (≈ 19.6 µM)	> 128	> 128	> 32	> 32	> 128	> 128	> 32	> 128	16 (≈ 39.3 µM)	> 128	0	0	0	MIC [29]: 8 µg/mL (≈ 19.6 µM)
CC(=O)c1c(C)[nH]c(C(c2ccccc2I)c2[nH]c(C)c(C(C)=O)c2C)c1C [3k]	> 32	> 128					4 (≈ 8.19 µM)	> 32	> 32		8 (≈ 16.4 µM)	> 32			> 32		> 32	20 ± 8	0	3 ± 5	
CC(=O)c1c(C)[nH]c(C(c2cccs2)c2[nH]c(C)c(C(C)=O)c2C)c1C [3l]	> 32	> 128					8 (≈ 21.7 µM)	> 32	> 32		4 (≈ 10.9 µM)	> 32			> 32		> 32	9 ± 5	11 ± 7	6 ± 3	
CC(=O)c1c(C)[nH]c(C(c2ccccc2O)c2[nH]c(C)c(C(C)=O)c2C)c1C [3m]																		6 ± 10	0	1 ± 17	MIC ([2]; ATCC19606, 18 h): > 32 µg/mL; MIC ([5]; Staphylococcus epidermidis, ATCC12228, 18 h): > 128 µg/mL; MIC ([12]; Staphylococcus aureus, ATCC29213, 18 h): 4 µg/mL (≈ 10.6 µM); MIC ([13]; Enterobacter cloacae, ATCC13047, 18 h): > 32 µg/mL; MIC ([15]; Pseudomonas aeruginosa, CIP5933, 18 h): > 32 µg/mL; MIC ([20]; Staphylococcus aureus, ATCC25923, 18 h): 8 µg/mL (≈ 21.1 µM); MIC ([21]; Klebsiella pneumoniae, ATCC35657, 18 h): > 32 µg/mL; MIC ([25]; Escherichia coli, ATCC25922, 18 h): > 32 µg/mL; MIC ([28]; Serratia marcescens, CIP103551, 18 h): > 32 µg/mL
